Experimental data from publication PMC5371667, “Targeting Bile Acid Receptors: Discovery of a Potent and Selective Farnesoid X Receptor Agonist as a New Lead in the Pharmacological Approach to Liver Diseases” (Frontiers in Pharmacology, 2017).
Where two headings read alike, the source gives them in different places.

What was measured:
[1] = biological target: T1, GST-fusion FXR-LBD (Homo sapiens, UniProt Q96RI1); experiment: Alpha Screen coactivator (SRC-1 peptide) recruitment assay; assay type: biochemical; conditions: recruitment of SRC-1 co-activator peptide, Alfa Screen, Table 1; for Efficacy: 6-ECDCA = 100
T1 construct: 10 nM of purified GST-tagged FXR-LBD protein
T1 sequence (Q96RI1 262-486 limits assumed): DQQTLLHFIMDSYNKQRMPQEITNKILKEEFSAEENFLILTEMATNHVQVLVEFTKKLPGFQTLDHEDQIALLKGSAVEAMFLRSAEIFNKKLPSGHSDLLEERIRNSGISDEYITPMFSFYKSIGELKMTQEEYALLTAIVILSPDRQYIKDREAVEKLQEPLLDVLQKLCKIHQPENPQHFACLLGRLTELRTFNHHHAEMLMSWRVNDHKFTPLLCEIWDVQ
Protocol: Activation of FXR was determined by Alpha Screen Technology in a Coactivator Recruitment Assay. Anti-GST-coated acceptor beads were used to capture the GST-fusion FXR-LBD, whereas the biotinylated-SRC-1 peptide was captured by the streptavidin donor beads. Upon illumination at 680 nm, chemical energy is transferred from donor to acceptor beads across the complex streptavidin-donor/[…]-LBD/anti-GST-acceptor and a signal is produced. The assay was performed in white, low-volume, 384-well Optiplates (PerkinElmer) using a final volume of 25 μL containing final concentrations of 10 nM of purified GST-tagged FXR-LBD protein, 30 nM biotinylated SRC-1 peptide, 20 μg/mL anti-GST acceptor beads, and 10 μg/mL of streptavidin donor bead (PerkinElmer). The assay buffer contained 50 mM Tris (pH 7.4), 50 mM KCl and 1 mM DTT. The stimulation times with 1 μL of tested compound (dissolved in 50% DMSO/H2O) were fixed to 30 min at room temperature. The concentration of DMSO in each well was maintained at a final concentration of 2%. After the addition of the detection mix (acceptor and donor beads), the plates were incubated in the dark for 3 h at room temperature and then were read in an Envision microplate analyzer (PerkinElmer).

[2] = biological target: T2, human GPBAR1 (Homo sapiens, UniProt Q8TDU6); experiment: GPBAR1 transactivation on HepG2 cells (CRE luciferase reporter); assay type: cell-based; conditions: compounds at 1 and 10 μM, TLCA 10 μM positive control
T2 construct: expressed in transfected cells; host or cells: HepG2
T2 sequence (Q8TDU6 1-330): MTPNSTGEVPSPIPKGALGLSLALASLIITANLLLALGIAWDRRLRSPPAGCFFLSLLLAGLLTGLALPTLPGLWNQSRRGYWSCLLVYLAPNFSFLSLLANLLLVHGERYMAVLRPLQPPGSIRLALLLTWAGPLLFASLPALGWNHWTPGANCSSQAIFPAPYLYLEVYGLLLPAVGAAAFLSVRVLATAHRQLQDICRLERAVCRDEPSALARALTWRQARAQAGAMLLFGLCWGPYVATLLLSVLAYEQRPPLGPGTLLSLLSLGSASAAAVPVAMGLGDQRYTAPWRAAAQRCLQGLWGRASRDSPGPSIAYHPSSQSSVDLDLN
Protocol: For FXR mediated transactivation, HepG2 cells were plated at 5 × 10^4 cells/well in a 24 well plate. Cells were transfected with 200 ng of the reporter vector p(hsp27)-TK-LUC containing a FXR response element (IR1) cloned from the promoter of heat shock protein 27 (hsp27), 100 ng of pSG5-FXR, 100 ng of pSG5-RXR, and 100 ng of pGL4.70 (Promega), a vector encoding the human Renilla gene. For GPBAR1 mediated transactivation, HepG2 cells were plated at 5 × 10^4 cells/well in a 24 well-plate and transfected with 200 ng of pGL4.29 (Promega), a reporter vector containing a cAMP response element (CRE) that drives the transcription of the luciferase reporter gene luc2P, with 100 ng of pCMVSPORT6-human GPBAR1, and with 100 ng of pGL4.70 Renilla. […] TLCA (10 μM) was used as a positive control for GPBAR1 activity.

[3] = cited from earlier work
[4] = biological target: T3, hFXR (Homo sapiens, UniProt Q96RI1); experiment: FXR transactivation on HepG2 cells (luciferase reporter); assay type: cell-based
T3 construct: expressed in transfected cells; host or cells: HepG2
T3 sequence (Q96RI1 1-486): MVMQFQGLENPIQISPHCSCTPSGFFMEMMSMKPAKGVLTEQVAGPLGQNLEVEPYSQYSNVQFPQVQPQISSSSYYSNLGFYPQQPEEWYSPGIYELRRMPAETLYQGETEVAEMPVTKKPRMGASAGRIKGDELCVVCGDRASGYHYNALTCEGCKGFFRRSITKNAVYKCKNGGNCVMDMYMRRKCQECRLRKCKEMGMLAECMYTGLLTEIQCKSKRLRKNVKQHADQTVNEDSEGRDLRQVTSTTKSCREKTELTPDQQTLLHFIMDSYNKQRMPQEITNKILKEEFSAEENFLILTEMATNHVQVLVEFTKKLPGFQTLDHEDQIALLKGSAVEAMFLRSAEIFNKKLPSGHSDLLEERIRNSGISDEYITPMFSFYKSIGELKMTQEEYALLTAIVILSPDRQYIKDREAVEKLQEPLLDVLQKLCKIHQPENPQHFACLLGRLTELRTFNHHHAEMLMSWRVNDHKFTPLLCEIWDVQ
T3 sequence (P19793 1-462 partner): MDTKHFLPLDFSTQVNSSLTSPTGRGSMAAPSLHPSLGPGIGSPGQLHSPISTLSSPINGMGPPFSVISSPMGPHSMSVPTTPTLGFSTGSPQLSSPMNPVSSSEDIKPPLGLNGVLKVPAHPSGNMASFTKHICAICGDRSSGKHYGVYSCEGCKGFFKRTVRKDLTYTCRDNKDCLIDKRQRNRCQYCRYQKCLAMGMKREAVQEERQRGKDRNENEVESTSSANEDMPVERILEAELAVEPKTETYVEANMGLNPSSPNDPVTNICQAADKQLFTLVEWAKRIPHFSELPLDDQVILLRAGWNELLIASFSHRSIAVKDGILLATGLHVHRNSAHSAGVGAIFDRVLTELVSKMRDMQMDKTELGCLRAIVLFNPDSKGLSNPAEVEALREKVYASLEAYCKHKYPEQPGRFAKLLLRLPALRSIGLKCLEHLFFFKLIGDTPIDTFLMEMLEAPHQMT
Protocol: HepG2 (HB, 8065 from ATCC), an immortalized human epatocarcinoma cell line, was cultured and maintained at 37°C and 5% CO2 in E-MEM additioned with 10% FBS, 1% glutamine, and 1% penicillin/streptomycin. For FXR mediated transactivation, HepG2 cells were plated at 5 × 10^4 cells/well in a 24 well plate. Cells were transfected with 200 ng of the reporter vector p(hsp27)-TK-LUC containing a FXR response element (IR1) cloned from the promoter of heat shock protein 27 (hsp27), 100 ng of pSG5-FXR, 100 ng of pSG5-RXR, and 100 ng of pGL4.70 (Promega), a vector encoding the human Renilla gene. For GPBAR1 mediated transactivation, HepG2 cells were plated at 5 × 10^4 cells/well in a 24 well-plate and transfected with 200 ng of pGL4.29 (Promega), a reporter vector containing a cAMP response element (CRE) that drives the transcription of the luciferase reporter gene luc2P, with 100 ng of pCMVSPORT6-human GPBAR1, and with 100 ng of pGL4.70 Renilla. […]. TLCA (10 μM) was used as a positive control for GPBAR1 activity.
HepG2 cells were transfected as described above and then treated with increasing concentrations of compounds. At 18 h post stimulations, cellular lysates were assayed for luciferase and Renilla activities using the Dual-Luciferase Reporter assay system (E1980, Promega). Luminescence was measured using Glomax 20/20 luminometer (Promega). Luciferase activities were normalized with Renilla activities.

[5] = In vivo metabolic profile of compound 2 in mice (LC-MS); conditions: 50 mg/kg oral of compound 2, LC-MS
[6] = PBC patients, ref Mason et al., 2010

CCC1C(O)C2C3CCC(C(C)CCCO)C3(C)CCC2C2(C)CCC(N=[N+]=[N-])CC12 (stereo not shown) [compound 4]
Efficacy [1]: 39

CCC1C(O)C2C3CCC(C(C)CCCO)C3(C)CCC2C2(C)CCC(N)CC12 (stereo not shown) [compound 11]
GPBAR1 transactivation [2]: residual activity

CCC1C(O)C2C3CCC(C(C)CCC(=O)O)C3(C)CCC2C2(C)CCC(N)CC12 (stereo not shown) [compound 14]
GPBAR1 transactivation [2]: residual activity

CCC1C(=O)C2C3CCC(C(C)CCC(=O)O)C3(C)CCC2C2(C)CCC(N=[N+]=[N-])CC12 (stereo not shown) [compound 5]
Efficacy [1]: 24

CCC1C(O)C2C3CCC(C(C)CCCO)C3(C)CCC2C2(C)CCC(N=[N+]=[N-])CC12 (stereo not shown) [compound 7]
EC50 [1]: 1800 ± 210 nM | Efficacy [1]: 57

CC[C@H]1[C@@H](O)[C@@H]2[C@H](CC[C@]3(C)[C@@H]([C@H](C)CCC(=O)O)CC[C@@H]23)[C@@]2(C)CC[C@@H](O)C[C@@H]12 [6-ECDCA]
patients with drug discontinuation caused by pruritus [3, 6]: 40% | patients with pruritus (itching) [3, 6]: 50–60% | patients with pruritus (itching) ([3]; patients with NASH, ref Neuschwander-Tetri et al., 2015): 23%

CCC1C(=O)C2C3CCC(C(C)CCC(=O)O)C3(C)CCC2C2(C)CCC(N)CC12 (stereo not shown) [compound 13]
GPBAR1 transactivation [2]: residual activity

CC[C@H]1[C@@H](O)C2C3CC[C@H]([C@H](C)CCC(=O)NCCS(=O)(=O)O)[C@@]3(C)CCC2[C@@]2(C)CC[C@H](N=[N+]=[N-])C[C@@H]12 (stereo partly shown) [compound 2a]
EC50 ([4]; 10 nM to 25 μM, 18 h): 3950 nM | agonist activity toward FXR ([4]; dose-response): full agonist activity | recovery in bile and plasma after administration of compound 2 [5]: efficiently recovered in bile and in plasma

CCC1C(O)C2C3CCC(C(C)CCCO)C3(C)CCC2C2(C)CCC(N=[N+]=[N-])CC12 (stereo not shown) [compound 8]
Efficacy [1]: 49

CCC1C(=O)C2C3CCC(C(C)CCC(=O)O)C3(C)CCC2C2(C)CCC(N=[N+]=[N-])CC12 (stereo not shown) [compound 1]
Efficacy [1]: 32

CCC1C(O)C2C3CCC(C(C)CCC(=O)O)C3(C)CCC2C2(C)CCC(N=[N+]=[N-])CC12 (stereo not shown) [compound 6]
EC50 [1]: 1380 ± 350 nM | Efficacy [1]: 61

CCC1C(O)C2C3CCC(C(C)CCCO)C3(C)CCC2C2(C)CCC(N=[N+]=[N-])CC12 (stereo not shown) [compound 3]
EC50 [1]: 550 ± 80 nM | Efficacy [1]: 55
